Measurements reported in US10456509B2, “Chlorhexidine gluconate compositions, resin systems and articles” (3M INNOVATIVE PROPERTIES COMPANY, priority 2012, dated 2019).
Counter-ions that a name gives are not always drawn. Like-named read-outs stand apart in the source and are kept apart here.

Legend:
[1] = Solubility of lyophilized CHG in vehicles, Lyophilization Method; details: for Apparent solubility 2 minutes / Apparent solubility 2 hours 50° C. / Apparent solubility >24 hours / Apparent solubility after cooling / Apparent solubility immediate: 0.2 wt. % lyophilized CHG; for Apparent solubility 2 minutes: after 2 minutes; for Apparent solubility 2 hours 50° C.: after 2 hours in 50° C. oven; for Apparent solubility >24 hours: after 24 hours; for Apparent solubility after cooling: after cooling to room temperature; for Apparent solubility immediate: observed immediately after mixing
Procedure: The Lyophilization Method. Lyophilized CHG was prepared by freeze-drying the aqueous CHG solution (20 wt. % solution in water, obtained from Xttrium Laboratories Inc., Chicago, Ill.).
For lower viscosity vehicles, a 5 ml sample of the non-aqueous vehicle of interest was measured into a glass vial. For higher viscosity vehicles that were difficult to transfer by volume, a 5 gm sample was weighed into the vial. Next, 0.01 g of lyophilized CHG was added to the vial. The sample was capped and mixed by shaking for 30 seconds. The sample was immediately observed and then observed again after 2 minutes and again after 24 hours. After 24 hours, the sample was placed in a 50° C. oven for 2 hours and then removed and immediately observed. These samples were allowed to cool to room temperature and a final observation was made.
CHG solutions. The solutions containing CHG were either a 20 wt. % aqueous solution of CHG or a 10-20% w/w solution of CHG in a non-aqueous vehicle. The non-aqueous solutions were prepared by freeze drying the aqueous CHG solution to produce lyophilized CHG. Finely divided, lyophilized CHG was then solubilized in a non-aqueous vehicle at room temperature with continuous stirring for eight hours.

[2] = Solubility Screening of CHG in vehicles, Vacuum Method
Procedure: Solubility Screening. Screening tests were conducted to determine the solubility of CHG in a wide variety of vehicles. Tests were conducted using the Vacuum Method and the Lyophilizing Method.
Vacuum Method. […] The flask was put in a 60° C. oil bath and stirred with a magnetic stir bar. […] In those cases, after nearly all the water was removed, additional vehicle was added to bring the final weight to 50 grams. The resulting concentration of CHG and residual water were determined. Also, the final state of the solution was qualitatively evaluated to determine if the mixture was transparent and apparently homogenous, or clearly inhomogeneous.

[3] = CHG 10 wt. % in vehicle, 23-50° C., Vacuum Method
[4] = CHG 20 wt. % in vehicle, 23-50° C., Vacuum Method

| Molecule | Apparent solubility 2 minutes [1] | Apparent solubility 2 hours 50° C. [1] | Apparent solubility >24 hours [1] | Apparent solubility after cooling [1] | Apparent solubility immediate [1] | also measured |
| --- | --- | --- | --- | --- | --- | --- |
| CC(C)CCCCCCCCCCCCCCCOC(=O)CCCCCCCCCCCCCCC(C)C [Isostearyl isostearate] | no | partial | no | partial | no | – |
| Isolaureth-10 | no | soluble | partial | soluble | no | Final State [2]: Inhomogeneous |
| sorbitan trioleate | – | – | – | – | – | solubility of CHG in vehicle (dissolution experiments using lyophilized CHG) [1]: limited |
| CC(C)CCCCCCCCCCCCCCC(=O)OCC(O)CO (stereo not drawn) [GMIS-2, glycerol monoisostearate] | – | – | – | – | – | solubility of CHG in vehicle (dissolution experiments using lyophilized CHG) [1]: good solvent for CHG |
| CCOC(=O)CC(CC(=O)OCC)(OC(C)=O)C(=O)OCC [Acetyltriethyl citrate] | no | soluble | partial | partial | no | – |
| Octyldodeceth-10 | partial | partial | partial | partial | no | – |
| CC(C)CCCCCCCCCCCCCCC(=O)OCC(COC(=O)CCCCCCCCCCCCCCC(C)C)(COC(=O)CCCCCCCCCCCCCCC(C)C)COC(=O)CCCCCCCCCCCCCCC(C)C [Pentaerythritol tetraisostearate] | partial | partial | partial | partial | partial | – |
| PEG-20 glyceryl Triisostearate | partial | partial | partial | partial | no | – |
| PPG-5 Ceteth-20 | no | soluble | partial | soluble | no | Final State [2]: Inhomogeneous |
| Polyglycerol-3 Diisostearate | no | soluble | soluble | partial | no | – |
| Diisostearyl dimerate | no | soluble | no | no | no | – |
| Glycereth-18 Ethylhexanoate | no | soluble | soluble | soluble | no | – |
| CC(C)CCCCCCCCCCCCCCC(=O)OCC(O)CO (stereo not drawn) [GMIS-1, glycerol monoisostearate] | – | – | – | – | – | solubility of CHG in vehicle (dissolution experiments using lyophilized CHG) [1]: limited |
| OCCCCCCCCO [1,8-octanediol] | – | – | – | – | – | Final State [2, 3]: Inhomogeneous; CHG solubility in vehicle (trend) ([2]; summary of Tables 1a-3b, Vacuum Method): too widely separated to impart good solubility |
| CC(O)CO (stereo not drawn) [1,2-propanediol] | – | – | – | – | – | Final State [2, 3]: Homogeneous |
| Oleth-2 | no | partial | no | partial | no | – |
| CCCCCCC(O)CO (stereo not drawn) [1,2-octanediol] | – | – | – | – | – | Final State [2, 3]: Homogeneous; Final State [2, 4]: Homogeneous |
| Polyethyleneglycol Dimethyl Ether | – | – | – | – | – | Final State [2]: Inhomogeneous |
| Triglyceryl diisostearate | – | – | – | – | – | Final State [2]: Inhomogeneous |
| CC(O)COC(C)COC(C)CO (stereo not drawn) [Tripropylene glycol] | – | – | – | – | – | Final State [2]: Inhomogeneous |
| CCCCCCCC/C=C\CCCCCCCC(=O)OCC(O)CO (stereo not drawn) [Glyceryl monooleate] | – | – | – | – | – | Final State [2, 4]: Homogeneous |
